Key:
Assay type in all cases: ADME, organism-based
[1] = Plasma concentration in transgenic mouse expressing human CETP/apoB100 at 30 mg/kg, po at 8 hrs; design: dose 30 mg/kg, route oral
[2] = Plasma concentration in transgenic mouse expressing human CETP/apoB100 at 30 mg/kg, po at 2 hrs; design: dose 30 mg/kg, route oral
[3] = Plasma concentration in transgenic mouse expressing human CETP/apoB100 at 30 mg/kg, po at 4 hrs; design: dose 30 mg/kg, route oral
[4] = AUC (0 to 8 hrs) in transgenic mouse expressing human CETP/apoB100 at 30 mg/kg, po; design: time < 8 hr, dose 30 mg/kg, route oral; conditions: plasma

Molecule `O=C(N[C@@H]1CCC(F)(F)C1)N[C@@](Cc1ccccc1)(c1cc(F)cc(OC(F)(F)C(F)F)c1)c1ccc(Cl)cn1` has a concentration at 8 h [1] of 112 nM, a concentration at 2 h [2] of 1070 nM and a concentration at 4 h [3] of 249 nM. The AUC(0-t) at 8 h [4] was 3.2 µM·h.
